Assay results as given in US20020040018A1, “Subtype selective melatonergics” (priority 2000, published 2002).
Where two headings read alike, the source gives them in different places.

Legend:
[1] = test system: Frings audiogenic seizure susceptible mice; assay: Audiogenic seizure susceptibility of Frings mice; format: in vivo; conditions: for P.I.: Table 6, TD50/ED50
Experimental: All compounds were administered i.p. Varying doses of the compounds were tested. At the predetermined time of peak anticonvulsant effect, individual mice were placed into a round Plexiglas chamber (diameter, 15 cm; height, 18 cm) pitted with an audio transducer (Model A5-ZC; FET Research & Development, Salt Lake City, Utah) and exposed to a high intensity sound stimulus (110 decibels, 11 KHz) for 25 seconds. Animals not displaying tonic forelimb or hindlimb extension were considered protected. The effect of the test compounds on motor performance was assessed by the rotorod test (Dunham and Miya, 1957). For this procedure, mice were tested for their ability to maintain balance on a rotating (6 rpm) knurled Plexiglas rod (1 inch diameter) for one minute. Mice unable to maintain balance in three successive trials during the test period were considered toxic. The median effective dose (ED50) and the median toxic dose (TD50) was calculated by probit analysis (Finney, 1971). For these studies, the dose of each test substance was varied between the limits of 0 and 100% protection and toxicity. The protective index (PI) is TD50/ED50.

in vivo = conditions: Frings, mouse
Experimental: (§1) All compounds were administered i.p. Varying doses of the compounds were tested. […] For this procedure, mice were tested for their ability to maintain balance on a rotating (6 rpm) knurled Plexiglas rod (1 inch diameter) for one minute. Mice unable to maintain balance in three successive trials during the test period were considered toxic. […] For these studies, the dose of each test substance was varied between the limits of 0 and 100% protection and toxicity. The protective index (PI) is TD50/ED50.

MT2 receptor subtype = target: T1, MT2 receptor subtype (Homo sapiens, UniProt P49286); conditions: radioligand binding, clones in NIH-3T3 cells; cited from earlier work
T1 construct: host or cells: NIH-3T3 cells
T1 sequence (P49286 1-362): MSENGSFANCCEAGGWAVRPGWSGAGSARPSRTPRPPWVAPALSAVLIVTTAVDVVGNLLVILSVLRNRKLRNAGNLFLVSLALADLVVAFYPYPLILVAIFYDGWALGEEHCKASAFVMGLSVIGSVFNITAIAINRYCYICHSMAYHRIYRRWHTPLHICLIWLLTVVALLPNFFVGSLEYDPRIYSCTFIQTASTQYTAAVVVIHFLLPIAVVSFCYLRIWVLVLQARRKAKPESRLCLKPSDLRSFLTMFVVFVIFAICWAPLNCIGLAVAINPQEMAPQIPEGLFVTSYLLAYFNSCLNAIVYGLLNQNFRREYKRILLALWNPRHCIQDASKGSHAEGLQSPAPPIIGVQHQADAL

[2] = test system: Frings audiogenic seizure-susceptible mice; assay: Rotorod test of motor performance (toxicity) in Frings mice; conditions: Table 6, i.p., rotorod
Experimental: as §1

rat = conditions: cited from earlier work
mice = assay: Elevated platform test for phencyclidine-like behavioral effects; format: in vivo; conditions: 44.5 nmol dose, control
Experimental: The in vivo phencyclidine-like behavioral effects of CGX-031-120 is assessed by the elevated platform test as described by Evoniuk et al. (1991). The platform test is a rapid method for evaluating the behavioral effects of phencyclidine-like dissociative anesthetics in mice. […] Alternatively, as a control, a 44.5 nmol dose of MK 801 (dizocilpine) elicited 87.5% drug-induced falls from the elevated platform.

[3] = Formalin model of persistent pain (Example 11); format: in vivo
Experimental: In this model, two distinct phases of nociceptive activity (paw licking) are observed. […] The second phase is caused by the release of inflammatory factors from tissue damage caused by formalin injection. This phase lasts for 30 to 40 minutes, and is a model of persistent inflammatory pain. The second phase is also predictive of analgesic drugs that will show efficacy in models of chronic and neurophathic pain. [drawing 2]

rodents = conditions: 25 μg chronically for 13 weeks; cited from earlier work
[4] = Sugden's study; cited from earlier work
[5] = Sugden's study; cited from earlier work; remark: listed apart in the source
[6] = test system: children with sleep disturbances; conditions: single dose of 5-10 mg; cited from earlier work
[7] = Mus musculus, ip, Table 6, i.p., time of peak effect, read-out: ED50
[8] = Table 6, i.p., time of peak effect

For `CCCC(CCC)C(=O)O` [Depakote ®, reference compound], the ED50 [1, 7] was 155 mg/kg and the P.I. [1] was 2.6.

In the case of `O=C1NC(=O)C(c2ccccc2)(c2ccccc2)N1` [Dilantin ®, reference compound], the ED50 [1, 7] is reported as 3.9 mg/kg, the P.I. [1] is reported as 10.5 and the TD50 (in vivo; ip) is reported as 41 mg/kg.

Molecule `NC(=O)OCC(COC(N)=O)c1ccccc1` [Felbatol ®, reference compound] has an ED50 [1, 7] of 10 mg/kg, a P.I. [1] of 22 and a TD50 (in vivo; ip) of 220 mg/kg.

For `CCCC(=O)NCCc1c2n(c3ccc(OC)cc13)Cc1ccccc1-2` [IIK7, N-butanoyl-2-(2-methoxy-6H-isoindolo-[2,1a]-indol-11-yl)-ethanamine], the “selectivity for the MT2 receptor subtype” value (MT2 receptor subtype) is given as 140 fold.

In the case of `O=C1CN=C(c2ccccc2Cl)c2cc([N+](=O)[O-])ccc2N1` [Klonipin ®, reference compound], the P.I. [1] is reported as 2.6, the “ED50” value [1, 8] is reported as 0.10 mg/kg and the “TD50” value [2] is reported as 0.26 mg/kg.

For `CC(=O)NCCc1c(Cc2ccccc2)[nH]c2ccccc12` [Luzindole], the “antagonism of melatonin induced anti-nociception” value (rat; i.c.v. (Luzindole 50 & 100 μg)) is listed as “antagonized”.

For `C[C@]12N[C@H](Cc3ccccc31)c1ccccc12` [MK 801, reference compound], the “drug-induced falls from the elevated platform” value (mice) was 87.5%.

With `COc1ccc2[nH]cc(CCNC(C)=O)c2c1` [Melatonin, N-acetyl-5-methoxytryptamine] the ED50 ([1]; Mus musculus, ip) was 82 mg/kg, the ED50 ([1]; audiogenic mouse model, read-out: ED50) was 83 mg/kg and the “licking time following formalin injection” value ([3]; both phases, 5 doses) was “dose-dependently reduced the licking time”. The “dose at which reduction of licking time reaches significance” value ([3]; phase one) was ≥ 100 mg/kg, the “dose at which reduction of licking time reaches significance” value ([3]; phase two) was ≥ 200 mg/kg and the “number and severity of seizures induced by PTZ” value (rodents) was “reduced the number and severity of seizures”. For the same molecule, the “ED50 v 3-MPA” value [4] was 115 mg/kg, the TD50 (in vivo; intraperitoneal) was 363 mg/kg and the TD50 (in vivo; ip) was 342 mg/kg. For the same molecule, the “ED50 v ECS” value [5] was 159 mg/kg, the “frequency of epileptic attacks” value [6] was “positive effect” and the anti-nociceptive effect (rat; ip 30, 60, 120 mg/kg) was “dose-dependent anti-nociceptive effect”.

With `NC(=O)N1c2ccccc2C=Cc2ccccc21` [Tegratol ®, reference compound] the P.I. [1] was 4.1, the “ED50” value [1, 8] was 11.2 mg/kg and the “TD50” value [2] was 45.4 mg/kg.

With `CCC1(C)CC(=O)NC1=O` (stereo not shown) [Zarontin ®, reference compound] the P.I. [1] was 1.04 and the TD50 (in vivo; ip) was 340 mg/kg.
